PubChem BioAssay (NCI)
Values after ≈ are worked out from the molar mass of the structure shown.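 Compound exposure: 48 hours, 5 concentrations, 96-well plates. GI50 = concentration required for 50% inhibition of growth. At the TGI there is no net growth.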

Assays:
Assay in all cases: inhibition of tumour cell growth, NCI panel, 48 h
A549 NSCLC = system: A549 NSCLC
CCRF-CEM leukemia = system: CCRF-CEM leukemia
HL-60(TB) leukemia = system: HL-60(TB) leukemia
IGROV1 ovarian = system: IGROV1 ovarian
MOLT-4 leukemia = system: MOLT-4 leukemia
NCI-H460 lung = system: NCI-H460 lung
RXF 393 renal = system: RXF 393 renal
DU-145 prostate = system: DU-145 prostate
MDA-MB-231 breast = system: MDA-MB-231 breast
HS 578T breast = system: HS 578T breast

| Compound | TGI (A549 NSCLC) [µM] | GI50 (CCRF-CEM leukemia) [µM] | TGI (CCRF-CEM leukemia) [µM] | GI50 (HL-60(TB) leukemia) [µM] | TGI (HL-60(TB) leukemia) [µM] | GI50 (IGROV1 ovarian) [µM] | TGI (IGROV1 ovarian) [µM] | TGI (MOLT-4 leukemia) [µM] | TGI (NCI-H460 lung) [µM] | TGI (RXF 393 renal) [µM] | TGI (DU-145 prostate) [µM] | TGI (MDA-MB-231 breast) [µM] | GI50 (RXF 393 renal) [µg/mL] | TGI (HS 578T breast) [µM] |
| --- | --- | --- | --- | --- | --- | --- | --- | --- | --- | --- | --- | --- | --- | --- |
| CC(=O)O[C@H]1CCC2[C@@H]3CCC4c5nonc5CC[C@]4(C)C3CC[C@@]21C (some centres not stated) | > 10 | > 100 | > 100 | > 100 | > 100 | > 100 | > 100 | > 10 | > 10 | > 10 | – | – | – | – |
| COc1cc2c(c(OC)c1OC)-c1ccc(SC)cc1C(O)CC2 (configuration not stated) | 34.6 | – | > 100 | – | < 0.01 | – | > 100 | – | 19.5 | – | > 100 | > 100 | 16.2 (≈ 46.7 µM) | – |
| ClCCCCCc1c2nc(c(CCCCCCl)c3ccc([nH]3)c(CCCCCCl)c3ccc([nH]3)c(CCCCCCl)c3nc1C=C3)C=C2 | > 100 | – | > 100 | – | > 100 | – | > 100 | > 100 | > 100 | > 100 | – | > 100 | – | > 100 |
| CCOC(=O)C(Cl)(NC(=O)OCc1ccccc1)C(F)(F)F (configuration not stated) | > 100 | – | > 100 | – | > 100 | – | > 100 | > 100 | – | > 100 | > 100 | > 100 | – | > 100 |
| CC[C@@]1(O)C(=O)OCc2c1cc1n(c2=O)Cc2c-1nc1ccccc1c2/C=N/NC(=O)c1ccc(N)cc1 | > 100 | – | – | – | – | – | – | 0.287 | 15.2 | 0.22 | 16.8 | > 100 | – | > 100 |
| Cc1ccc(N/C(SCc2ccccc2)=C(\C(Cl)=C(Cl)Cl)[N+](=O)[O-])c(C)c1 | 90.6 | – | > 100 | – | – | – | – | > 100 | > 100 | – | > 100 | 34.8 | – | 68.4 |
| CN1CC2CN(Cc3ccccc3)CCN2c2cccnc21 (configuration not stated) | > 100 | – | > 100 | – | > 100 | – | > 100 | > 100 | > 100 | > 100 | – | > 100 | – | > 100 |
| CC(=O)OC(Cc1c(O)c2c(C)cccc2oc1=O)C(C)(C)O (configuration not stated) | > 100 | – | > 100 | – | > 100 | – | > 100 | > 100 | > 100 | – | > 100 | > 100 | – | > 100 |
| CC(=O)OC(C)(C)CCC(=O)[C@](C)(O)[C@H]1[C@H](O)C[C@@]2(C)[C@@H]3CCc4c(cc(OC5OC(CO)C(O)C(O)C5O)c(O)c4C)C3(C)C(=O)C[C@]12C (some centres not stated) | > 100 | – | > 100 | – | – | – | > 100 | > 100 | > 100 | > 100 | > 100 | > 100 | – | – |
| Nc1nc(-c2ccco2)cc(-c2ccc(CO)o2)n1 | > 100 | – | > 100 | – | > 100 | – | > 100 | > 100 | > 100 | > 100 | – | – | – | – |
| C#CC1(O)CCCCCCCCC2(CCCCCCCC1)OCCO2 | 26.8 | – | – | – | 40.9 | – | 30.3 | – | 44.2 | 24.5 | 31.1 | – | – | 38.9 |
| N#CNC(=NCCc1c[nH]c2ccccc12)Oc1ccccc1 | > 100 | – | > 100 | – | > 100 | – | > 100 | > 100 | > 100 | > 100 | – | – | – | – |
